Values quoted from earlier work as cited in patent US8431374B2, “Methods for the economical production of biofuel from biomass” (Gevo, Inc., priority 2007, dated 2013).
Blank lines part the entries; values can stand above or below the molecule they belong to.

Tests used:
[1] = logarithm of the octanol:water partition coefficient
Klyveromyces marxianus = conditions: in binary combination (Ballesteros 2004)

solubility limit (octanol, two-phase system (Chen, Q. 1995)): < 1100 µg/mL
Structure (SMILES): CCCCCCCCO [1-octanol]

Structure (SMILES): CCC(C)O (centres unmarked) [2-butanol]
log P [1]: 0.6

Solubility in water (20° C., given in words): miscible
Structure (SMILES): CC(C)O [2-propanol]

Structure (SMILES): COc1cc(C=O)ccc1O [Vanillin, vanillin]
reduction in both cell growth and fermentation (Klyveromyces marxianus): 90%

log P [1]: 0.79
Structure (SMILES): CC(C)CO [isobutanol]
